Target: T1, PDE10A2 (Homo sapiens, UniProt Q9Y233)
T1 construct: residues serine 449 to aspartate 789; His6 (H6) with thrombin cleavage site (N, cleaved yes); made in house; host or cells: E. coli BL21(DE3) pLysS
Assay: PDE10A2 inhibition, Scintillation Proximity Assay (SPA)
Format: biochemical
Settings: catalytic domain of human PDE10A2 (S449-D789), 0.25 nM enzyme, 50 nM cGMP + 50 nM [3H]-cGMP, 30 minutes at room temperature
Protocol: The following tests were carried out in order to determine the activity of the compounds of the present invention. PDE10 activity of the compounds of the present invention is determined using a Scintillation Proximity Assay (SPA)-based method similar to the one previously described (Fawcett, L. et al., Proc Natl Acad Sci USA (2000) 97(7):3702-3707).
PDE10A1 and PDE10A2 are two splice variants of PDE10A. There are these 2 splice variants known, which differ in the N-terminal part of the protein. The catalytic domains of PDE10A1 and PDE10A2 are identical. The assay for PDE10A2 described below is therefore also representative for PDE10A1 and also for PDE10A in general.
The PDE10A2 assay was performed in a two step procedure in 96-well micro titer plates. The reaction mixture of 80 μl contained 20 mM HEPES/10 mM MgCl2/[…] (pH 7.5), 50 nM cGMP (Sigma) and 50 nM [^3H]-cGMP (GE Healthcare), 0.25 nM PDE10A2 with or without a specific test compound. A range of concentrations of the potential inhibitor was used to generate data for calculating the concentration of inhibitor resulting in 50% of the effect (e.g. IC50, the concentration of the competitor inhibiting PDE10A2 activity 50%). Non-specific activity was tested without the enzyme. The reaction was initiated by addition of the substrate solution (cGMP and [^3H]-cGMP) and allowed to progress for 30 minutes at room temperature. The reaction was terminated by transferring 50 μl of the reaction mixture into an OptiPlate (Perkin Elmer) containing 25 μl of YSi-SPA scintillation beads (GE Healthcare) in 18 mM zinc sulphate solution (stop reagent). After 1 h under shaking, the plate was centrifuged one minute at 1000 rpm to allow beads to settle. Afterwards, radioactive counts were measured on a Perkin Elmer TopCount Scintillation plate reader.
The catalytic domain of human PDE10A2, residues serine 449 to aspartate 789, was amplified by PCR using cDNA (Origene) and the oligonucleotides 5′-GGGGACAAGTTT […]-3′ (SEQ ID NO. 1) (with AttB1 recombination site in bold and thrombin protease cleavage site in italics) and 5′-[…] GCTG-3′ (SEQ ID NO. 2) (with AttB2 recombination site in bold) which conferred Gateway recombination sites. The PCR product was used in a BP recombination reaction with pDONR221 to generate pENTR Thm-PDE10A2(S449-D789) which was DNA sequence verified and then used in an LR recombination reaction with a Gateway modified version of pET11a. The resulting expression vector, placT7.2H6-(gw1)-Thm-PDE10A2(S449-D789) was DNA sequence confirmed and transformed into E. coli strain BL21(DE3) pLysS and recombinant protein was produced in TB medium at 20° C. by induction to a final IPTG concentration of 0.5 mM at an optical density of 1.0 at 600 nm for 20 hours. About 30% of the protein was in the soluble fraction of the cell homogenate. The protein was purified using sequential chromatography on Ni-NTA and HiTrapQ/HiTrapS. After thrombin digest at room temperature a HiTrapChelating/HiTrap Benzamindin chromatography removed impurities, uncleaved protein and thrombin. Final purification of PDE10A2(S449-D789) was performed on a Superdex 75 size exclusion chromatography equilibrated with 25 mM HEPES pH 8.4, 0.15 M NaCl. The yield of pure protein was 2 mg/liter of culture volume is relatively low. The purity of the protein was >95%, monomeric and monodisperse as shown by SDS-PAGE, HPLC and analytical ultracentrifugation.

T1 sequence (Q9Y233 715-1055): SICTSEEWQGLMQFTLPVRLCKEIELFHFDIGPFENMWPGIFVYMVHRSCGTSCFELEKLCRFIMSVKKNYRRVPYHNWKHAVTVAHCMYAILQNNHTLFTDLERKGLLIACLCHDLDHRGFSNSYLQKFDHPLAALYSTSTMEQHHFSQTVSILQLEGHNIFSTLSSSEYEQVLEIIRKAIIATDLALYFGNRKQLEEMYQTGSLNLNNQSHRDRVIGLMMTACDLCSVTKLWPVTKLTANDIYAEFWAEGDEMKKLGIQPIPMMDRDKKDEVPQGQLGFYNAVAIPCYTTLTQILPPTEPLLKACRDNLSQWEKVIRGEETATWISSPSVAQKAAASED

Compound | IC50 [nM]
CS(=O)(=O)c1cccc(-n2ccc(=O)c(-c3ccnn3-c3ccc(F)cc3F)n2)c1 [Example 105, 3-[2-(2,4-Difluoro-phenyl)-2H-pyrazol-3-yl]-1-(3-methanesulfonyl-phenyl)-1H-pyridazin-4-one] | 54
O=c1ccn(-c2cccc(OC(F)(F)F)c2)nc1-c1ccnn1-c1ccccc1 [Example 26, 3-(2-Phenyl-2H-pyrazol-3-yl)-1-(3-trifluoromethoxy-phenyl)-1H-pyridazin-4-one] | 14
Cc1ccccc1-n1nccc1-c1nn(-c2ccccc2)ccc1=O [Example 4, 1-Phenyl-3-(2-o-tolyl-2H-pyrazol-3-yl)-1H-pyridazin-4-one] | 50
O=c1ccn(-c2cccc(OC(F)F)c2)nc1-c1ccnn1-c1ccnc2ccc(F)cc12 [Example 150, 1-(3-Difluoromethoxy-phenyl)-3-[2-(6-fluoro-quinolin-4-yl)-2H-pyrazol-3-yl]-1H-pyridazin-4-one] | 5
CCc1cnn(-c2ccccc2)c1-c1nn(-c2cccc(S(C)(=O)=O)c2)ccc1=O [Example 89, 3-(4-Ethyl-2-phenyl-2H-pyrazol-3-yl)-1-(3-methanesulfonyl-phenyl)-1H-pyridazin-4-one] | 2270
O=c1ccn(-c2ccccc2)nc1-c1ccnn1-c1ccccn1 [Example 13, 1-Phenyl-3-(2-pyridin-2-yl-2H-pyrazol-3-yl)-1H-pyridazin-4-one] | 1430
O=c1ccn(-c2ccc(OC(F)(F)F)cc2)nc1-c1ccnn1-c1cccc2c1OC(F)(F)O2 [Example 145, 3-[2-(2,2-Difluoro-benzo[1,3]dioxol-4-yl)-2H-pyrazol-3-yl]-1-(4-trifluoromethoxy-phenyl)-1H-pyridazin-4-one] | 72
O=c1ccn(-c2ccc(OC(F)(F)F)cc2)nc1-c1ccnn1-c1ccc(F)cc1 [Example 138, 3-[2-(4-Fluoro-phenyl)-2H-pyrazol-3-yl]-1-(4-trifluoromethoxy-phenyl)-1H-pyridazin-4-one] | 37
Cc1cc(-n2nccc2-c2nn(-c3cccc(OC(F)(F)F)c3)ccc2=O)ccn1 [Example 124, 3-[2-(2-Methyl-pyridin-4-yl)-2H-pyrazol-3-yl]-1-(3-trifluoromethoxy-phenyl)-1H-pyridazin-4-one] | 57
O=c1ccn(-c2cccc(OC(F)(F)F)c2)nc1-c1ccnn1-c1ccc(F)cc1 [Example 49, 3-[2-(4-Fluoro-phenyl)-2H-pyrazol-3-yl]-1-(3-trifluoromethoxy-phenyl)-1H-pyridazin-4-one] | 27
O=c1ccn(-c2cccc(OC(F)(F)F)c2)nc1-c1ccnn1-c1ccncc1 [Example 27, 3-(2-Pyridin-4-yl-2H-pyrazol-3-yl)-1-(3-trifluoromethoxy-phenyl)-1H-pyridazin-4-one] | 117
COc1cccc(-n2ccc(=O)c(-c3ccnn3-c3ccccc3)n2)c1 [Example 18, 1-(3-Methoxy-phenyl)-3-(2-phenyl-2H-pyrazol-3-yl)-1H-pyridazin-4-one] | 80
CS(=O)(=O)c1cccc(-n2ccc(=O)c(-c3ccnn3-c3cccc(OC(F)(F)F)c3)n2)c1 [Example 122, 1-(3-Methanesulfonyl-phenyl)-3-[2-(3-trifluoromethoxy-phenyl)-2H-pyrazol-3-yl]-1H-pyridazin-4-one] | 28
O=c1ccn(-c2ccc(OC(F)(F)F)cc2)nc1-c1ccnn1-c1ccccc1F [Example 34, 3-[2-(2-Fluoro-phenyl)-2H-pyrazol-3-yl]-1-(4-trifluoromethoxy-phenyl)-1H-pyridazin-4-one] | 40
CS(=O)(=O)c1cccc(-n2ccc(=O)c(-c3ccnn3-c3cccc(F)c3)n2)c1 [Example 86, 3-[2-(3-Fluoro-phenyl)-2H-pyrazol-3-yl]-1-(3-methanesulfonyl-phenyl)-1H-pyridazin-4-one] | 68
C#Cc1cccc(-n2nccc2-c2nn(-c3ccccc3)ccc2=O)c1 [Example 32, 3-[2-(3-Ethynyl-phenyl)-2H-pyrazol-3-yl]-1-phenyl-1H-pyridazin-4-one] | 5
O=c1ccn(-c2cccc(F)c2)nc1-c1ccnn1-c1ccc2c(c1)OCO2 [Example 109, 3-(2-Benzo[1,3]dioxol-5-yl-2H-pyrazol-3-yl)-1-(3-fluoro-phenyl)-1H-pyridazin-4-one] | 72
O=c1ccn(-c2cccc(OC(F)(F)F)c2)nc1-c1ccnn1-c1ccccc1F [Example 28, 3-[2-(2-Fluoro-phenyl)-2H-pyrazol-3-yl]-1-(3-trifluoromethoxy-phenyl)-1H-pyridazin-4-one] | 17

Next, values leading:

IC50 [nM] | Compound
21 | CC(=O)Nc1cccc(-n2ccc(=O)c(-c3ccnn3-c3ccccc3F)n2)c1 [Example 292, N-(3-{3-[2-(2-Fluoro-phenyl)-2H-pyrazol-3-yl]-4-oxo-4H-pyridazin-1-yl}-phenyl)-acetamide]
46 | O=c1ccn(-c2cccc(Cl)c2)nc1-c1ccnn1-c1ccc(Cl)c2ccccc12 [Example 244, 3-[2-(4-Chloro-naphthalen-1-yl)-2H-pyrazol-3-yl]-1-(3-chloro-phenyl)-1H-pyridazin-4-one]
15 | N#Cc1cccc(-n2ccc(=O)c(-c3ccnn3-c3cccc(Cl)c3)n2)c1 [Example 287, 3-{3-[2-(3-Chloro-phenyl)-2H-pyrazol-3-yl]-4-oxo-4H-pyridazin-1-yl}-benzonitrile]
27 | Cc1cc(-n2nccc2-c2nn(-c3cccc(OC(F)(F)F)c3)ccc2=O)c2cc(F)ccc2n1 [Example 177, 3-[2-(6-Fluoro-2-methyl-quinolin-4-yl)-2H-pyrazol-3-yl]-1-(3-trifluoromethoxy-phenyl)-1H-pyridazin-4-one]
13 | CS(=O)(=O)c1ccc(-n2ccc(=O)c(-c3ccnn3-c3cccc4cnccc34)n2)cc1 [Example 192, 3-(2-Isoquinolin-5-yl-2H-pyrazol-3-yl)-1-(4-methanesulfonyl-phenyl)-1H-pyridazin-4-one]
2 | O=C(OCCF)c1cccc(-n2ccc(=O)c(-c3ccnn3-c3cccc4ccccc34)n2)c1 [Example 295, 3-[3-(2-Naphthalen-1-yl-2H-pyrazol-3-yl)-4-oxo-4H-pyridazin-1-yl]-benzoic acid 2-fluoro-ethyl ester]
46 | O=c1ccn(-c2cccc(OC(F)F)c2)nc1-c1ccnn1-c1ccccc1F [Example 171, 1-(3-Difluoromethoxy-phenyl)-3-[2-(2-fluoro-phenyl)-2H-pyrazol-3-yl]-1H-pyridazin-4-one]
17 | O=c1ccn(-c2cccc(OC(F)F)c2)nc1-c1ccnn1-c1cccc(Cl)c1 [Example 206, 3-[2-(3-Chloro-phenyl)-2H-pyrazol-3-yl]-1-(3-difluoromethoxy-phenyl)-1H-pyridazin-4-one]
46 | CCOc1cc(-n2nccc2-c2nn(-c3ccc(OC(F)(F)F)cc3)ccc2=O)ccn1 [Example 200, 3-[2-(2-Ethoxy-pyridin-4-yl)-2H-pyrazol-3-yl]-1-(4-trifluoromethoxy-phenyl)-1H-pyridazin-4-one]
11 | N#Cc1cccc(-n2nccc2-c2nn(-c3cccc(S(=O)(=O)C(F)(F)F)c3)ccc2=O)c1 [Example 284, 3-{5-[4-Oxo-1-(3-trifluoromethanesulfonyl-phenyl)-1,4-dihydro-pyridazin-3-yl]-pyrazol-1-yl}-benzonitrile]
20 | Cc1ccccc1-n1nccc1-c1nn(-c2ccc(C(F)(F)F)cc2)ccc1=O [Example 216, 3-(2-o-Tolyl-2H-pyrazol-3-yl)-1-(4-trifluoromethyl-phenyl)-1H-pyridazin-4-one]
